Usually IC50 stands for the point on the concentration scale where inhibition reaches its midpoint. Read a high IC50 as lower potency.

Experimental findings from ChEMBL document CHEMBL1142451, “The molecular interactions of buspirone analogues with the serotonin transporter” (Bioorg Med Chem, 2008) are described below.

For experiment [1], the target named is Sodium-dependent serotonin transporter (Rattus norvegicus, UniProt P31652). Put plainly: Displacement of [3H]5-HT from SERT in rat cerebral cortex synaptosome membrane. The format is tissue-based, Brain. (In general: In a radioligand displacement assay an active substance lowers the binding of a labelled ligand.)
Sodium-dependent serotonin transporter (Rattus norvegicus, UniProt P31652), sequence (P31652 whole entry): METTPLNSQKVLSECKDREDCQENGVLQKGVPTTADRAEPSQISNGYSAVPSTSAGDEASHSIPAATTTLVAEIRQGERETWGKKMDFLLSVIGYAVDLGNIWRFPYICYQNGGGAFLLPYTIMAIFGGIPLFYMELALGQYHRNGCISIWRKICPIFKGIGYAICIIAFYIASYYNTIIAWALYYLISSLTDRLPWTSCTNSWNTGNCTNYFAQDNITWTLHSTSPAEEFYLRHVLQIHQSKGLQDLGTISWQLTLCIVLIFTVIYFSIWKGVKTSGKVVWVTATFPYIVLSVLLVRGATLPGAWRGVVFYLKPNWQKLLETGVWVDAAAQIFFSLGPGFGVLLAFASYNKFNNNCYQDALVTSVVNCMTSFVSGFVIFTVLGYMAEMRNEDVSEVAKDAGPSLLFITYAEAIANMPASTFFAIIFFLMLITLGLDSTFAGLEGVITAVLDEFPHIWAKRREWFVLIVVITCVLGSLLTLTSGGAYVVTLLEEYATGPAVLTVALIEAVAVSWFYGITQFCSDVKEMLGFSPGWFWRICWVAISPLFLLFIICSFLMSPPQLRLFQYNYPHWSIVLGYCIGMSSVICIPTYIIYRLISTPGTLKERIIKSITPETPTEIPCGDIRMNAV
For experiment [2], the target named is Sodium-dependent serotonin transporter (Homo sapiens, UniProt P31645). Put plainly: Displacement of [3H]5-HT from human SERT.
Sodium-dependent serotonin transporter (Homo sapiens, UniProt P31645), sequence (P31645 whole entry): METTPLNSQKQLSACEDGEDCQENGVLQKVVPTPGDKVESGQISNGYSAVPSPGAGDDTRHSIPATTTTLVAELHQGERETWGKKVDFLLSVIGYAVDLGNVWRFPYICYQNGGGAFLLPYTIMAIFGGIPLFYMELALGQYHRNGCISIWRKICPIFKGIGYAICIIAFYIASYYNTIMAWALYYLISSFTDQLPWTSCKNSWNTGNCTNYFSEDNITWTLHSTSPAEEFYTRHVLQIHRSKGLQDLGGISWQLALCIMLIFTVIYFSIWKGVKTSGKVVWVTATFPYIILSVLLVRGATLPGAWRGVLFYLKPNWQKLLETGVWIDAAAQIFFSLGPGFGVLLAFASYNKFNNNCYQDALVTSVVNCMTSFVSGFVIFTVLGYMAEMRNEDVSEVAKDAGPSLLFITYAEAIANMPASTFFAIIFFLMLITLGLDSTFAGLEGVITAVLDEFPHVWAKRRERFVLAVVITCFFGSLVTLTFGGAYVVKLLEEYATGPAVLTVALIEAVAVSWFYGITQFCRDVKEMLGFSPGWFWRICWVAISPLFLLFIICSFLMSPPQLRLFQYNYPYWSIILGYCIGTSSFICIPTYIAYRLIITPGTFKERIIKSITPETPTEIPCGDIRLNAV

Consider `O=C1c2ccccc2C(=O)N1CCCCN1CCN(c2ccc3ccccc3n2)CC1`, for which the IC50 in experiment [1] is 95 nM.

Compound `CC1CN(c2ccc3ccccc3n2)CCN1CCCCN1C(=O)CC2(CCCC2)CC1=O` (stereo not drawn) registered an IC50 in experiment [1] of 75 nM.

Consider `CC1CN(c2ccc3ccccc3n2)CCN1CCCCN1C(=O)c2ccccc2C1=O` (stereo not drawn), for which the IC50 in experiment [2] amounted to 8 nM; in experiment [1], 33 nM.

Regarding `CC1CN(c2ccc3ccccc3n2)CCN1CCCN1C(=O)c2ccccc2C1=O` (stereo not drawn), the IC50 in experiment [2] worked out at 80 nM.

Regarding `CC1CN(c2ccc3ccccc3n2)CCN1CCCCN1C(=O)CCCC1=O` (stereo not drawn), the IC50 in experiment [2] is 50 nM.

`CC1(C)CC(=O)N(CCCCN2CCN(c3ccc4ccccc4n3)CC2)C(=O)C1` showed an IC50 in experiment [1] of 146 nM.

Consider `O=C1CC2(CCCC2)CC(=O)N1CCCCN1CCN(c2ccc3ccccc3n2)CC1`, for which, in experiment [1], the IC50 was 112 nM.
